Assay results published in patent publication US8754095B2, “Substituted N-heterocycloalkyl bipyrrolidinylphenyl amide derivatives, preparation and therapeutic use thereof” (Sanofi, priority 2010, dated 2014).
Counter-ions that a name gives are not always drawn.

Columns and labels:
Mouse H3 = Mouse H3 (Mus musculus, UniProt P58406); assay: Mouse H3 radioligand binding assay; settings: similar procedure as rhesus binding
Protocol: (§1) Rhesus H3 radioligand binding assay was performed using rhesus H3 receptor membranes (prepared as described above), [3H]-Methylhistamine (Perkin Elmer) and WGA SPA beads (wheat germ agglutinin scintillation proximity assay) beads (Amersham). The assay was performed in 96-well Opti-Plates (Packard). Each reaction contained 50 μl rhesus H3 membranes (20-30 μg total protein), 50 μl WGA SPA beads (0.1 μg) and 50 μl of 83 Ci/mmol [^3H]-Methylhistamine (final concentration 2 nM) and 50 μl of tested compound. The compounds of this invention and/or vehicle were diluted with binding buffer from 10 mM DMSO stocks. Assay plates were sealed with TopSeal (Perkin Elmer) and mixed on shaker (25° C., 1 hour). Assay plates were read on TopCount scintillation counter (Packard). Results were analyzed by Hill transformation and Ki values were determined by Cheng-Prusoff equation. Similar procedures were employed to determine the binding data for rat and mouse.

Rat H3 = Rat H3 (Rattus norvegicus, UniProt Q9QYN8); assay: Rat H3 radioligand binding assay; settings: similar procedure as rhesus binding
Protocol: as §1

[1] = biological target: T1, rhesus (Macacca Mulatta) H3 receptor (Macaca mulatta, UniProt Q865E1); assay: Rhesus H3 [3H]-Methylhistamine radioligand binding assay; design: species or system rhesus monkey (Macacca Mulatta); settings: displacement of [3H]-Methylhistamine (2 nM), rhesus H3 membranes, Cheng-Prusoff
T1 construct: pcDNA5/FRT/TO (Invitrogen) containing the rhesus monkey (Macacca Mulatta) 445 amino acid H3 receptor
Protocol: Rhesus H3 membranes were prepared from the Flp-In T-REx 293 Cell Line (Invitrogen) stably transfected with pcDNA5/FRT/TO (Invitrogen) containing the rhesus monkey (Macacca Mulatta) 445 amino acid H3 receptor. (Genbank #AY231164). Stably transfected cultures were amplified in tissue culture flasks by standard tissue culture methods and induced to express rhesus H3 by exposure to 500 ng/ml tetracycline (Cellgro) for 24 hours. After induction, cells were dissociated from flasks utilizing Cell Stripper (Cellgro). Cells were centrifuged (1 K×g, 5 min) and pellet frozen in an ethanol-dry ice bath to disrupt cell membranes. Frozen cell pellet was re-suspended in 5 mM HEPES (pH 7.4, Invitrogen) at 10 ml/1000 cm2 of harvested cells. The cell suspension was drawn through an 18 gauge needle (2-3×) followed by a 23 gauge needle (2-3×) to further disrupt cell membranes. The cell suspension was centrifuged (40K×g, 30 min). Cell membrane pellet was re-suspended in 5 mM HEPES (pH 7.4, Invitrogen) at a final protein concentration of 10 mg/ml. Rhesus H3 membranes were stored under liquid nitrogen prior to use in [3]-Methylhistamine and GTPγS radioligand binding assays.
as §1

Rats = assay: Forced-Swimming Test in Rats; format: in vivo; settings: rat, p.o. twice, 5-min test
Protocol: This example further illustrates the study of efficacy of the compounds of this invention as antidepressive agents in animal models.
The procedure was a modification of that described by Porsolt et al. (1977) Depression: a new animal model sensitive to antidepressant treatments. Nature 266:730-2. Rats were placed in individual glass cylinder (40 cm height, 18 cm diameter) containing water (22-25° C.) to a height of 15 cm. Two swimming sessions were conducted (a 15-min training session followed 24 h later by a 5-min test). After each swimming session, rats were placed under a heating lamp to avoid hypothermia. The duration of immobility was measured during the 5-min test.
Example 1 of this invention was administered p.o. twice (15 min pre-test followed by first injection 24 h prior to 5 min test) at a dosage of 10 mg/kg.
Example 2 of this invention was administered p.o. twice (15 min pre-test followed by first injection 24 h prior to 5 min test) at a dosage levels of 0.1, 1, and 10 mg/kg.

Rat H3, sequence (Q9QYN8 whole entry): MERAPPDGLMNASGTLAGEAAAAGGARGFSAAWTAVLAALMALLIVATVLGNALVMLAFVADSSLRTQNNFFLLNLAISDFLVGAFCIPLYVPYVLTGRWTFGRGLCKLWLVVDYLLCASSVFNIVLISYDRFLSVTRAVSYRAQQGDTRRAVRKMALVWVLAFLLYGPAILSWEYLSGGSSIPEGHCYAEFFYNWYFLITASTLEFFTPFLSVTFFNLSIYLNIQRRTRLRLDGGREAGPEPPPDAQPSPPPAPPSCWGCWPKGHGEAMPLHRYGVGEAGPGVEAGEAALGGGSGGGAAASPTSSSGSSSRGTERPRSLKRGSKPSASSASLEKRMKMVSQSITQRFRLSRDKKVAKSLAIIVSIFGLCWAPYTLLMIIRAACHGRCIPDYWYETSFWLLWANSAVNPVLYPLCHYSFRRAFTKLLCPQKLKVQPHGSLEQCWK
T1 sequence (Q865E1 1-445): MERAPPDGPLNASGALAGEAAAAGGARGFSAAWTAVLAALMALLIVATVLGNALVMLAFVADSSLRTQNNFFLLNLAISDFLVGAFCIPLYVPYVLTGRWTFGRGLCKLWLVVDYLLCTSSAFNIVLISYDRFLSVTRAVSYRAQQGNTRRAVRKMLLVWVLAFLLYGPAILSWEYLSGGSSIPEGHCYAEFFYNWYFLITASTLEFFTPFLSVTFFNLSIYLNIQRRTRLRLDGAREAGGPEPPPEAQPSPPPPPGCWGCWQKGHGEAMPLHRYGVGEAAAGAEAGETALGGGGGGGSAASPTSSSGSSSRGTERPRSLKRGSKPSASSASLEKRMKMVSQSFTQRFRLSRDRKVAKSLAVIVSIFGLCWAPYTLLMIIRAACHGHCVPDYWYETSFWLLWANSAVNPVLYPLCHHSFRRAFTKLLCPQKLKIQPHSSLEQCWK
Mouse H3, sequence (P58406 whole entry): as the sequence (Q9QYN8 whole entry) above, with T15A, A286T, A290G, R387H, I389V counted along it

In the case of `C[C@H]1CCCN1[C@H]1CCN(c2ccc(C(=O)NCC3CCOCC3)cc2)C1` [Example 5, 4-((2S,3′S)-2-Methyl-[1,3′]bipyrrolidinyl-1′-yl)-N-(tetrahydro-pyran-4-ylmethyl)-benzamide], the Ki (Mouse H3) is reported as 40.3 nM, the Ki (Rat H3) is reported as 19.1 nM and the Ki [1] is reported as 1.24 nM.
For `Cc1cc(N2CC[C@H](N3CCC[C@@H]3C)C2)ccc1C(=O)NC1CCOCC1` [Example 4, 2-Methyl-4-((2S,3′S)-2-methyl-[1,3′]bipyrrolidinyl-1′-yl)-N-(tetrahydro-pyran-4-yl)-benzamide], the melting point was 147 °C, the Ki (Mouse H3) was 12.1 nM and the Ki (Rat H3) was 19.7 nM. The Ki [1] was 1.52 nM.
For `C[C@H]1CCCN1[C@H]1CCN(c2ccc(CC(=O)NC3CCN(CC4CCCC4)CC3)cc2)C1` [Example 9, N-(1-Cyclopentylmethyl-piperidin-4-yl)-2-[4-((2S,3′S)-2-methyl-[1,3′]bipyrrolidinyl-1′-yl)-phenyl]-acetamide], the Ki (Rat H3) was 1.26 nM and the Ki [1] was 0.69 nM.
Work on `CNC(=O)C1CCN(Cc2ccc(N3CC[C@H](N4CCC[C@@H]4C)C3)cc2)CC1` [Example 10, 1-[4-((2S,3′S)-2-Methyl-[1,3′]bipyrrolidinyl-1′-yl)-benzyl]-piperidine-4-carboxylic acid methylamide; hydrochloride] yielded a Ki (Mouse H3) of 4.4 nM, a Ki (Rat H3) of 0.929 nM and a Ki [1] of 0.466 nM.
In the case of `C[C@H]1CCCN1[C@H]1CCN(c2ccc(CC(=O)NC3CCN(C(=O)OC(C)(C)C)CC3)cc2)C1` [Example 6], the Ki (Rat H3) is reported as 19.4 nM and the Ki [1] is reported as 2.75 nM.
With `CCOC(=O)N1CCC(NC(=O)Cc2ccc(N3CC[C@H](N4CCC[C@@H]4C)C3)cc2)CC1` [Example 8, 4-{2-[4-((2S,3′S)-2-Methyl-[1,3′]bipyrrolidinyl-1′-yl)-phenyl]-acetylamino}-piperidine-1-carboxylic acid ethyl ester] the Ki (Rat H3) was 8.25 nM and the Ki [1] was 1.59 nM.
For `C[C@H]1CCCN1[C@H]1CCN(c2ccc(C(=O)NC3CCOCC3)cc2)C1` [Example 3, 4-((2S,3′S)-2-Methyl-[1,3′]bipyrrolidinyl-1′-yl)-N-(tetrahydro-pyran-4-yl)-benzamide], the melting point was 180 °C, the Ki (Mouse H3) was 10.1 nM and the Ki (Rat H3) was 15 nM. The Ki [1] was 1.98 nM.
With `C[C@H]1CCCN1[C@H]1CCN(c2ccc(CC(=O)NC3CCOCC3)cc2)C1` [Example 1, 2-[4-((2S,3′S)-2-Methyl-[1,3′]bipyrrolidinyl-1′-yl)-phenyl]-N-(tetrahydro-pyran-4-yl)-acetamide] the Ki (Mouse H3) was 10.8 nM, the “activity in forced-swimming test (duration of immobility)” value (“activity in forced-swimming test” for short) (Rats; 10 mg/kg) was “active” and the Ki (Rat H3) was 8.32 nM. It also gave a Ki [1] of 2.5 nM.
For `C[C@H]1CCCN1[C@H]1CCN(c2ccc3cc(C(=O)NC4CCOCC4)ccc3c2)C1` [Example 2, 6-((2S,3′S)-2-Methyl-[1,3′]bipyrrolidinyl-1′-yl)-naphthalene-2-carboxylic acid (tetrahydro-pyran-4-yl)amide], the Ki (Mouse H3) was 19.6 nM, the “activity in forced-swimming test” value (Rats; 0.1 mg/kg) was “active” and the “activity in forced-swimming test” value (Rats; 1 mg/kg) was “active”. For the same molecule, the “activity in forced-swimming test” value (Rats; 10 mg/kg) was “active”, the Ki (Rat H3) was 9.79 nM and the Ki [1] was 2.99 nM.
`C[C@H]1CCCN1[C@H]1CCN(c2ccc(CC(=O)NC3CCNCC3)cc2)C1` [Example 7, 2-[4-((2S,3′S)-2-Methyl-[1,3′]bipyrrolidinyl-1′-yl)-phenyl]-N-piperidin-4-yl-acetamide hydrochloride] showed a Ki (Rat H3) of 1.12 nM and a Ki [1] of 0.804 nM.
